Test results as given in patent US20160009752A1, “[…]-OXIMINO-AMINOALKYLETHERS AND PROCESS FOR PREPARATION THEREOF, USEFUL AS ANTIDIABETIC AND […] AGENTS” (COUNCIL OF SCIENTIFIC & INDUSTRIAL RESEARCH, priority 2013, published 2016).

How the values were obtained:
[1] = system: db/+ mice; assay: OGTT in glucose loaded db/+ mice; format: in vivo
Description: Male C57BL6-db/+ mice (12-18 week old, 18-20 g body weight) were procured from National Animal Laboratory Centre (NALC) of Central Drug Research Institute (CDRI), Lucknow, India Animals were housed in polypropylene cages, in controlled environment (temperature 25±2° C.; humidity 50-60%; light 300 lux at floor level with regular 12 h light-12 h dark cycle; noise level 50 decibel; ventilation 10-15 air changes per hour). They were provided with a standard laboratory diet (Dayal Industry, Barabanki, Lucknow) unless stated otherwise and has free access to water. The mice having fasting blood glucose values varying between 65-80 mg/dl were finally included in this study. Animals were divided into groups consisting of six animals in each. Group one was considered as control group, where as the other groups were termed as experimental groups. Rats of experimental groups were given the desired doses of the test samples i.e. 5, 10, 20, 30 and 50 mg/kg body weight. The test samples were always prepared in the vehicle 1% gum acacia. An oral glucose load of 3.0 g/kg was given to the animals of all the groups 30 min post administration of the test samples/vehicle. Blood glucose levels of the animals of all the groups were again measured at 30, 60, 90 and 120 min post glucose load. Food (not water) was removed from the cages during the experimental period. […] Comparing the AUC of test sample treated to that of control group determined the percent improvement in OGTT by test sample which is termed as anti-hyperglycaemic activity. Statistical comparison between the groups was done by employing Students t test.

## C/C(=N\OCCN1CCCCC1)[C@H]1CC[C@H]2[C@@H]3CC=C4C[C@@H](O)CC[C@]4(C)[C@H]3CC[C@]12C [Compound 14b, 3β-Hydroxy-pregna-5-en-20-one-O-(2-piperidin-1-yl-ethyl)-oxime]
[1]; 5 mg/kg
  % Antihyperglycaemic activity (OGTT improvement): 10.5%
[1]; 10 mg/kg
  % Antihyperglycaemic activity (OGTT improvement): 19.8%
[1]; 20 mg/kg
  % Antihyperglycaemic activity (OGTT improvement): 24.5%
[1]; 30 mg/kg
  % Antihyperglycaemic activity (OGTT improvement): 28.9%
[1]; 50 mg/kg
  % Antihyperglycaemic activity (OGTT improvement): 35.9%
other
  melting point: 130 to 135 °C
